From PubChem BioAssay AID1259407 (Chemical Carcinogenesis Research Information System (CCRIS), 2018)
Active and inactive are the calls of the source. No rule for the calls is given here.

System: CCRIS mutagenicity, Ames/micronucleus/aberration tests
Test: CCRIS mutagenicity studies

Measured: mutagenic call

O=C1c2ccccc2C(=O)c2ccccc21
inactive: End Point: IN VIVO MICRONUCLEUS, Test System: BONE MARROW POLYCHROMATIC ERYTHROCYTES, Species: MOUSE, Strain/Sex: B6C3F1/MALE, Route: IP INJECTION IN CORN OIL inactive; negative | Test System: AMES SALMONELLA TYPHIMURIUM, Strain/Indicator: TA97, Metabolic Activation: NONE, Method: STANDARD PLATE inactive; negative | Test System: AMES SALMONELLA TYPHIMURIUM, Strain/Indicator: TA97, Metabolic Activation: RAT, LIVER, S-9, PCB, Method: STANDARD PLATE inactive; negative | Test System: AMES SALMONELLA TYPHIMURIUM, Strain/Indicator: TA98, Metabolic Activation: HAMSTER, LIVER, S-9, AROCLOR 1254, Method: STANDARD PLATE inactive; negative | Test System: AMES SALMONELLA TYPHIMURIUM, Strain/Indicator: TA98, Metabolic Activation: NONE, Method: STANDARD PLATE inactive; negative | Test System: AMES SALMONELLA TYPHIMURIUM, Strain/Indicator: TA98, Metabolic Activation: RAT LIVER S-9, AROCLOR, Method: STANDARD PLATE inactive; negative | Test System: AMES SALMONELLA TYPHIMURIUM, Strain/Indicator: TA98, Metabolic Activation: RAT LIVER S-9, PHENOBARBITAL AND BETA-NAPHTHOFLAVONE (30%), Method: PREINCUBATION inactive; negative | Test System: AMES SALMONELLA TYPHIMURIUM, Strain/Indicator: TA98, Metabolic Activation: RAT LIVER S-9, PHENOBARBITAL AND BETA-NAPHTHOFLAVONE, Method: PREINCUBATION inactive; negative | Test System: AMES SALMONELLA TYPHIMURIUM, Strain/Indicator: TA98, Metabolic Activation: RAT, LIVER S-9, AROCLOR 1254 (10%, 30%), Method: PREINCUBATION inactive; negative; 99.8% pure | Test System: AMES SALMONELLA TYPHIMURIUM, Strain/Indicator: TA98, Metabolic Activation: RAT, LIVER, S-9, AROCLOR 1254, Method: STANDARD PLATE inactive; negative | Test System: AMES SALMONELLA TYPHIMURIUM, Strain/Indicator: TA98, Metabolic Activation: RAT, LIVER, S-9, PCB, Method: STANDARD PLATE inactive; negative | Test System: AMES SALMONELLA TYPHIMURIUM, Strain/Indicator: TA100, Metabolic Activation: HAMSTER, LIVER, S-9, AROCLOR 1254, Method: STANDARD PLATE inactive; negative | Test System: AMES SALMONELLA TYPHIMURIUM, Strain/Indicator: TA100, Metabolic Activation: NONE, Method: STANDARD PLATE inactive; negative | Test System: AMES SALMONELLA TYPHIMURIUM, Strain/Indicator: TA100, Metabolic Activation: RAT LIVER S-9, AROCLOR, Method: STANDARD PLATE inactive; negative | Test System: AMES SALMONELLA TYPHIMURIUM, Strain/Indicator: TA100, Metabolic Activation: RAT LIVER S-9, PHENOBARBITAL AND BETA-NAPHTHOFLAVONE (30%), Method: PREINCUBATION inactive; negative | Test System: AMES SALMONELLA TYPHIMURIUM, Strain/Indicator: TA100, Metabolic Activation: RAT LIVER S-9, PHENOBARBITAL AND BETA-NAPHTHOFLAVONE, Method: PREINCUBATION inactive; negative | Test System: AMES SALMONELLA TYPHIMURIUM, Strain/Indicator: TA100, Metabolic Activation: RAT, LIVER S-9, AROCLOR 1254 (10%, 30%), Method: PREINCUBATION inactive; negative; 99.8% pure | Test System: AMES SALMONELLA TYPHIMURIUM, Strain/Indicator: TA100, Metabolic Activation: RAT, LIVER, S-9, AROCLOR 1254, Method: STANDARD PLATE inactive; negative | Test System: AMES SALMONELLA TYPHIMURIUM, Strain/Indicator: TA100, Metabolic Activation: RAT, LIVER, S-9, PCB, Method: STANDARD PLATE inactive; negative | Test System: AMES SALMONELLA TYPHIMURIUM, Strain/Indicator: TA102, Metabolic Activation: NONE, Method: PREINCUBATION inactive; negative; 100% pure | Test System: AMES SALMONELLA TYPHIMURIUM, Strain/Indicator: TA102, Metabolic Activation: RAT, LIVER, S-9, AROCLOR 1254 (10%), Method: PREINCUBATION inactive; negative; 100% pure | Test System: AMES SALMONELLA TYPHIMURIUM, Strain/Indicator: TA102, Metabolic Activation: RAT, LIVER, S-9, AROCLOR 1254, Method: STANDARD PLATE inactive; negative | Test System: AMES SALMONELLA TYPHIMURIUM, Strain/Indicator: TA1535, Metabolic Activation: HAMSTER, LIVER, S-9, AROCLOR 1254, Method: STANDARD PLATE inactive; negative | Test System: AMES SALMONELLA TYPHIMURIUM, Strain/Indicator: TA1535, Metabolic Activation: NONE, Method: PREINCUBATION inactive; negative | Test System: AMES SALMONELLA TYPHIMURIUM, Strain/Indicator: TA1535, Metabolic Activation: NONE, Method: STANDARD PLATE inactive; negative | Test System: AMES SALMONELLA TYPHIMURIUM, Strain/Indicator: TA1535, Metabolic Activation: RAT LIVER S-9, AROCLOR, Method: STANDARD PLATE inactive; negative | Test System: AMES SALMONELLA TYPHIMURIUM, Strain/Indicator: TA1535, Metabolic Activation: RAT LIVER S-9, PHENOBARBITAL AND BETA-NAPHTHOFLAVONE (30%), Method: PREINCUBATION inactive; negative | Test System: AMES SALMONELLA TYPHIMURIUM, Strain/Indicator: TA1535, Metabolic Activation: RAT LIVER S-9, PHENOBARBITAL AND BETA-NAPHTHOFLAVONE, Method: PREINCUBATION inactive; negative | Test System: AMES SALMONELLA TYPHIMURIUM, Strain/Indicator: TA1535, Metabolic Activation: RAT, LIVER, S-9, AROCLOR 1254, Method: STANDARD PLATE inactive; negative | Test System: AMES SALMONELLA TYPHIMURIUM, Strain/Indicator: TA1537, Metabolic Activation: HAMSTER, LIVER, S-9, AROCLOR 1254, Method: STANDARD PLATE inactive; negative | Test System: AMES SALMONELLA TYPHIMURIUM, Strain/Indicator: TA1537, Metabolic Activation: NONE, Method: STANDARD PLATE inactive; negative | Test System: AMES SALMONELLA TYPHIMURIUM, Strain/Indicator: TA1537, Metabolic Activation: RAT LIVER S-9, AROCLOR, Method: STANDARD PLATE inactive; negative | Test System: AMES SALMONELLA TYPHIMURIUM, Strain/Indicator: TA1537, Metabolic Activation: RAT LIVER S-9, PHENOBARBITAL AND BETA-NAPHTHOFLAVONE, Method: PREINCUBATION inactive; negative | Test System: AMES SALMONELLA TYPHIMURIUM, Strain/Indicator: TA1537, Metabolic Activation: RAT, LIVER S-9, AROCLOR 1254 (10%, 30%), Method: PREINCUBATION inactive; negative; 99.8% pure | Test System: AMES SALMONELLA TYPHIMURIUM, Strain/Indicator: TA1537, Metabolic Activation: RAT, LIVER, S-9, AROCLOR 1254, Method: STANDARD PLATE inactive; negative | Test System: E. COLI, Strain/Indicator: WP2 UVRA, Metabolic Activation: NONE, Method: STANDARD PLATE inactive; negative | Test System: E. COLI, Strain/Indicator: WP2 UVRA, Metabolic Activation: RAT LIVER S-9, AROCLOR, Method: STANDARD PLATE inactive; negative | Test System: E.COLI, Strain/Indicator: WP2UVRA, Metabolic Activation: NONE, Method: PREINCUBATION inactive; negative | Test System: E.COLI, Strain/Indicator: WP2UVRA, Metabolic Activation: RAT LIVER S-9, PHENOBARBITAL AND BETA-NAPHTHOFLAVONE (30%), Method: PREINCUBATION inactive; negative | Test System: E.COLI, Strain/Indicator: WP2UVRA, Metabolic Activation: RAT LIVER S-9, PHENOBARBITAL AND BETA-NAPHTHOFLAVONE, Method: PREINCUBATION inactive; negative | Test System: MOUSE LYMPHOMA, Strain/Indicator: L5178Y (TK+/TK-), Metabolic Activation: NONE, Method: SUSPENSION/PLATE inactive; negative | Test System: MOUSE LYMPHOMA, Strain/Indicator: L5178Y (TK+/TK-), Metabolic Activation: RAT LIVER S-9, AROCLOR, Method: SUSPENSION/PLATE inactive; negative
active: End Point: IN VIVO MICRONUCLEUS, Test System: PERIPHERAL BLOOD ERYTHROCYTES, Species: MOUSE, Strain/Sex: B6C3F1/MALE, FEMALE, Route: DIET active; positive (at highest dose); (99.8% pure) | Test System: AMES SALMONELLA TYPHIMURIUM, Strain/Indicator: TA1537, Metabolic Activation: RAT LIVER S-9, PHENOBARBITAL AND BETA-NAPHTHOFLAVONE (30%), Method: PREINCUBATION active; positive

Fc1cnc2cccc(F)c2c1
inactive: Test System: AMES SALMONELLA TYPHIMURIUM, Strain/Indicator: TA100, Metabolic Activation: RAT, LIVER, S-9, PHENOBARBITAL AND 5,6-BENZOFLAVONE, Method: PREINCUBATION inactive; negative

Cc1ccc(OC(=O)N(C)N=O)cc1C
active: Test System: E. COLI WP2, Strain/Indicator: WP2, Metabolic Activation: NONE, Method: STANDARD PLATE active; positive
